Literature values in patent US10092573B2, “Gastric and colonic formulations and methods for making and using them” (Salix Pharmaceuticals, Inc., priority 2010, dated 2018).
“Also recorded” adds a separate entry of the source. Like-named read-outs stand apart in the source and are kept apart here.

Key:
[1] = not given; remark: listed apart in the source

SMILES	association with ischemic colitis (10 mg tablet form in combination with HALFLYTELY)	association with ischemic colitis (doses of 20 mg)	ischemic colitis (widespread chronic use at a lower dosage range, often daily, for constipation or bloating)	effect on creatinine, urea or electrolytes (sodium, potassium, chloride, phosphate) output ([1]; 24 hour output, renal)	doses with no recorded significant human gastroenterological side effects ([1]; human)	carcinogenic, mutagenic or teratogenic potential ([1]; in vivo)	share of the ingested erythritol that enters the colon ([1]; in vivo)	systemic metabolism and excretion of absorbed erythritol ([1]; in vivo)	toxicological effects in safety studies ([1]; in vivo)
CC(=O)Oc1ccc(C(c2ccc(OC(C)=O)cc2)c2ccccn2)cc1 [Bisacodyl, 4,4′-(pyridin-2-ylmethylene) bis(4,1-phenylene) diacetate]	less frequently	on rare occasions	No ischemic colitis has been consistently observed or reported	–	–	–	–	–	–
OC[C@@H](O)[C@@H](O)CO [Erythritol, (2R,3S)-butane-1,2,3,4-tetraol]	–	–	–	no effect; also recorded: does not influence	up to 1000 mg/kg body weight/day	does not have any	about 10%	not metabolized systemically and is excreted unchanged in urine	no toxicological effects
